Entries after “also recorded” stand apart in the source; their conditions may differ. Read-outs that look alike come from different tables or passages of the source. Marks after values point to notes of the source that are not given here.
Legend:
[1] = test system: Salmonella typhimurium TA100; test: Ames MPF genotoxicity assay; assay type: cell-based
Method: (§1) The genotoxicity of selected compounds (2b, 2j, 2m) was determined by Ames assay using Ames MPF 98/100 mutagenicity assay sample kit (Xenometrix AG, Allschwil, Switzerland) as previously described elsewhere. Salmonella typhimurium strains, TA98 (frameshift mutations) and TA100 (base-pair substitutions) were used in the assay. The concentration of the compounds was between 16 and 5000 μg/mL, in accordance with the guideline. Compounds were prepared in six different concentrations (5.0, 2.5, 1.25, 0.625, 0.3125, 0.156 mg/mL) in DMSO. Mutagenic potential was determined in the absence or presence of Aroclor™-1254 induced male Sprague–Dawley rat liver microsomal enzyme (S9) mix (Xenometrix AG). Positive controls without S9 mix were 2-nitrofluorene (2.0 μg/mL) and 4-nitroquinoline N-oxide (0.1 μg/mL), whereas 1.0 μg/mL and 2.5 μg/mL of 2-aminoanthracene solutions were used as positive controls with S9 against TA98 and TA100, respectively. Solvent control was prepared with 4% DMSO. The end of an experiment was determined by the change of the indicator medium colour to yellow, which was originating from the decrease of pH due to revertant bacteria. Yellow wells were counted as positive, and compared with the negative control. Fold induction over the negative control and fold induction over the baseline were calculated (Fold induction over the negative control is accepted as the ratio of the mean number of positive wells for the dose concentration divided by the mean number of positive wells for the zero dose (negative) control. Fold induction over the baseline is accepted as the ratio of the mean number of positive wells for the dose concentration divided by zero dose baseline. The zero-dose baseline is obtained by adding one standard deviation to the mean number of positive wells of the zero dose control. If the baseline is less than 1, the value is set to 1 for calculation).
(§2) Mutagenicity was determined according to the criteria reported previously. For a baseline value of ≤3, significant increases between 2 and 3-fold of the baseline were classified as weak mutagen, and increases ≥3-fold of the baseline were classified as mutagen. […] As a rule, at least two adjacent doses with significant increases or a significant increase at the highest dose level should be observed for a mutagenic compound. All of the doses were compared according to Student’s t-test at p < 0.05 for statistical significance.

[2] = test system: Salmonella typhimurium TA98; test: Ames MPF genotoxicity assay; assay type: cell-based
Method: as §1, §2

AChE = AChE (Homo sapiens, UniProt P22303); assay type: biochemical
Sequence of AChE (P22303 32-614): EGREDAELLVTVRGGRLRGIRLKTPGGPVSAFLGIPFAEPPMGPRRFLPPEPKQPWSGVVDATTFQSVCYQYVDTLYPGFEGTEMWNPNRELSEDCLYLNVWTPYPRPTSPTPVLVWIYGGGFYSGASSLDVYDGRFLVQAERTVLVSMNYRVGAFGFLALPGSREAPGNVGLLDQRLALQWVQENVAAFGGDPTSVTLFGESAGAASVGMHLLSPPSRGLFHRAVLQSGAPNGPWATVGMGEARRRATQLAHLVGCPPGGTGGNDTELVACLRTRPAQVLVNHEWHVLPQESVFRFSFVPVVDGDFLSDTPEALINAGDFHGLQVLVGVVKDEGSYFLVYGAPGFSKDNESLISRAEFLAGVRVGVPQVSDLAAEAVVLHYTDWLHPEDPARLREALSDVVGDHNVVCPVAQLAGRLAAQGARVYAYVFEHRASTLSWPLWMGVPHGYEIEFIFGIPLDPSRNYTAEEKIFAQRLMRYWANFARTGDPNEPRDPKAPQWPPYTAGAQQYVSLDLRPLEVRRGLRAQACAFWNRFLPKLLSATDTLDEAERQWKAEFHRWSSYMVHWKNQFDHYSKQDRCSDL

COX-2 = molecular target: T1, COX-2 (Homo sapiens, UniProt P35354); test: Fluorimetric COX-2 inhibition screening kit (BioVision); assay type: biochemical
T1 construct: purchased BioVision (Milpitas, CA, USA) K547-100
T1 sequence (P35354 18-604): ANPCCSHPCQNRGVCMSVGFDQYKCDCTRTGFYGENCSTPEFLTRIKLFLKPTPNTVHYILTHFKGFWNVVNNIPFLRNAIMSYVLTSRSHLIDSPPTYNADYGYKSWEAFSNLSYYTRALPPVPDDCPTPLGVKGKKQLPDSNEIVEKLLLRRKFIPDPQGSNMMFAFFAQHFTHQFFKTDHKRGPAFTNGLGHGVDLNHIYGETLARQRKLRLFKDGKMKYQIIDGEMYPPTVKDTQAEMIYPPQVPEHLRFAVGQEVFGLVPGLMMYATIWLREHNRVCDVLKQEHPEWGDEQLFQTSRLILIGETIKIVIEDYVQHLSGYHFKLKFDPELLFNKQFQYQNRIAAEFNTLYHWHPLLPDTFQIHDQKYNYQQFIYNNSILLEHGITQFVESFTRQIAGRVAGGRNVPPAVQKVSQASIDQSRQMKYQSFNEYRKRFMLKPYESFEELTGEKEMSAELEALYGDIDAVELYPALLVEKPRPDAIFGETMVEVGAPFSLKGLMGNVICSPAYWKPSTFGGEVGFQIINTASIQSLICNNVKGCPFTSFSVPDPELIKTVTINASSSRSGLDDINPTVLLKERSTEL
Summary of the method: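 Kit-based fluorimetric assay with human COX-2 or ovine COX-1, read kinetically at 25 °C for 5–10 min (ex 535 nm, em 587 nm). Slope from two points in the linear range; % inhibition relative to enzyme control slope, IC50 by regression of activity against concentration.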

`COc1ccc(-c2nc3ccccc3n2CCN2CCOCC2)cc1` [Compound 2b, 2-(4-Methoxyphenyl)-1-[2-(morpholin-4-yl)ethyl]-1H-benzimidazole] was tested, and the “REVERTANTS Fold Increase (over Baseline)” value ([1]; TA100, S9+, 0.156 mg/mL) was 0.06, the “REVERTANTS Fold Increase (over Baseline)” value ([1]; TA100, S9+, 0.3125 mg/mL) was 0.52 and the “REVERTANTS Fold Increase (over Baseline)” value ([1]; TA100, S9+, 0.625 mg/mL) was 0.45. For the same compound, the “REVERTANTS Fold Increase (over Baseline)” value ([1]; TA100, S9+, 1.25 mg/mL) was 0.26, the “REVERTANTS Fold Increase (over Baseline)” value ([1]; TA100, S9+, 2.5 mg/mL) was 0.26 and the “REVERTANTS Fold Increase (over Baseline)” value ([1]; TA100, S9+, 5 mg/mL) was 0.13. For the same compound, the “REVERTANTS Fold Increase (over Baseline)” value ([1]; TA100, S9−, 0.156 mg/mL) was 1.31 ***, the “REVERTANTS Fold Increase (over Baseline)” value ([1]; TA100, S9−, 0.3125 mg/mL) was 1.37 *** and the “REVERTANTS Fold Increase (over Baseline)” value ([1]; TA100, S9−, 0.625 mg/mL) was 0.69. For the same compound, the “REVERTANTS Fold Increase (over Baseline)” value ([1]; TA100, S9−, 1.25 mg/mL) was 0.62, the “REVERTANTS Fold Increase (over Baseline)” value ([1]; TA100, S9−, 2.5 mg/mL) was 0.25 *** and the “REVERTANTS Fold Increase (over Baseline)” value ([1]; TA100, S9−, 5 mg/mL) was 0.44 *. For the same compound, the “Ames MPF mutagenicity classification” value ([1]; TA100, with/without metabolic activation (S9)) was “non-genotoxic”, the “REVERTANTS Fold Increase (over Baseline)” value ([2]; TA98, S9+, 0.156 mg/mL) was 0.16 and the “REVERTANTS Fold Increase (over Baseline)” value ([2]; TA98, S9+, 0.3125 mg/mL) was 0.32. The “REVERTANTS Fold Increase (over Baseline)” value ([2]; TA98, S9+, 0.625 mg/mL) was 0.00, the “REVERTANTS Fold Increase (over Baseline)” value ([2]; TA98, S9+, 1.25 mg/mL) was 0.48 and the “REVERTANTS Fold Increase (over Baseline)” value ([2]; TA98, S9+, 2.5 mg/mL) was 0.80. For the same compound, the “REVERTANTS Fold Increase (over Baseline)” value ([2]; TA98, S9+, 5 mg/mL) was 1.27, the “REVERTANTS Fold Increase (over Baseline)” value ([2]; TA98, S9−, 0.156 mg/mL) was 0.69 and the “REVERTANTS Fold Increase (over Baseline)” value ([2]; TA98, S9−, 0.3125 mg/mL) was 0.75. For the same compound, the “REVERTANTS Fold Increase (over Baseline)” value ([2]; TA98, S9−, 0.625 mg/mL) was 0.81, the “REVERTANTS Fold Increase (over Baseline)” value ([2]; TA98, S9−, 1.25 mg/mL) was 0.40 and the “REVERTANTS Fold Increase (over Baseline)” value ([2]; TA98, S9−, 2.5 mg/mL) was 0.40. The “REVERTANTS Fold Increase (over Baseline)” value ([2]; TA98, S9−, 5 mg/mL) was 0.75, the “Ames MPF mutagenicity classification” value ([2]; TA98, in the presence/absence of metabolic activation (S9)) was “non-genotoxic; also recorded: non-mutagenic” and the “AChE Inhibition (%)” value (AChE; 10^-3 M) was 5.19%. For the same compound, the “AChE Inhibition (%)” value (AChE; 10^-4 M) was 5.19%, the IC50 (COX-2) was 8.37 µM and the “COX-2 Inhibition (%)” value (COX-2; 10^-3 M) was 79.41%. The “COX-2 Inhibition (%)” value (COX-2; 10^-4 M) was 84.23%, the “COX-2 inhibition at the initial concentrations” value (COX-2; 10^−3 M and 10^−4 M) was “more than 50%” and the inhibition at 10 µM (COX-2; 10^−5 M) was 57.9 ± 1.28%. The inhibition at 1 µM (COX-2; 10^−6 M, read-out: COX 2 Inhibition %) was 43.7 ± 1.12%, the inhibition at 0.1 µM (COX-2; 10^−7 M) was 38.1 ± 0.97% and the inhibition at 0.01 µM (COX-2; 10^−8 M) was 27.4 ± 0.87%. For the same compound, the inhibition at 0.001 µM (COX-2; 10^−9 M) was 21.4 ± 0.74%.
